Measurements from patent US11767313B2, “Compounds as nuclear transport modulators and uses thereof” (XWPHARMA LTD., priority 2018, dated 2023).
Read-outs that look alike come from different tables or passages of the source.

What was measured:
U87MG-luc tumor = test: U87MG-luc human glioblastoma orthotopic model; assay type: in vivo; conditions: 20 mg/kg orally, 3 times/week, 4 weeks
Text: Animals: Female BALB/c Nude mice (Supplied by Beijing AniKeeper Biotech Co., Ltd., 6-8 weeks old/18-22 g) were used. General procedures for animal care and using were in accordance with the standard operating procedures (SOPs) of Pharmaron, Inc.
Grouping and Treatments: Grouping and treatment were started on Day 7 post tumor cells inoculation. Mice were imaged to monitor the tumor growth, then mice were randomly assigned to respective groups using a computer-generated randomization procedure. All test articles were administered orally 20 mg/kg with 3 times/week, for 4 weeks post tumor implantations (n=12 per group).
Cell Culture: The Human glioblastoma U87-luc tumor cell line was maintained in vitro as monolayer culture and used for tumor inoculation
Tumor Inoculation and Randomization: 2.5×10^5 luciferase-expressing U87MG-luc tumor cells suspended in 2 μL MEM medium were injected into the right forebrain by positioning the needle at AP: 2.0 mm, ML: 0.5-1.0 mm, DV: 3.0 mm from bregma. The injection was slowly proceeding over a one-minute period. Upon completing injection, the needle was retained for another minute. Measurement Parameters: Tumor growth (monitored by image analysis), body weight and survival days were recorded.
Termination Criterion: Individual animal was humanely sacrificed by carbon dioxide when body weight loss >20% and animals could not get to adequate food or water.
Statistical Analysis: Data was recorded as means±standard error of the mean for all measurement parameters as study designed. All statistical tests were conducted by SPSS 17.0 statistical software, and the level of significance is set at p<0.05.

CRM1 = target: T1, CRM1 (Homo sapiens, UniProt O14980); test: PD effects by IHC in U87MG-luc orthotopic model, CRM1; assay type: in vivo, mice; conditions: orally three times a week for 2 weeks; vs vehicle control
T1 construct: from tissue; host or cells: U87MG-luc orthotopic xenograft tumours in mouse brain
Protocol: (§1) Based on the bioluminescent signal of tumor, mice were randomly assigned to respective groups using a computer-generated randomization procedure, which included vehicle and compound III-treated groups, respectively, with 5 animals per group. Compound III (20 mg/kg) was given orally 3 times a week (on Day 1, 3, 5) for 2 weeks. Animals for IHC study were euthanized at 6 hours after the last dose and perfused with normal saline followed by fixation with 4% paraformaldehyde. Entire brains containing tumors were collected and kept in fixative for 24 hours before proceeding for paraffin block.

Ki67 = test: PD effects by IHC in U87MG-luc orthotopic model, Ki67; assay type: in vivo, mice; conditions: orally three times a week for 2 weeks; vs vehicle control
Protocol: as §1

in vivo = conditions: female, mouse
3T3-L1 = test: CellTiter-Glo cell proliferation assay, 3T3-L1 (normal); assay type: cell-based; conditions: Mus musculus
Protocol: (§2) CellTiter-Glo® Luminescent Cell Viability assay (with Promega CellTiter 96® Luminescent CellTiter-Glo® kit) was used to study the proliferation inhibition by test compounds. Compounds were resuspended in DMSO to make a 25 mM stock suspension. Cells of cancer cell lines or normal tissues were seeded in 96-well plates at 1,500 to 5,000 cells/well overnight. Compounds were 2- or 3-fold diluted serially to obtain 10 concentrations. Then, the drugs were added to the cell wells by Bravo (Agilent) and incubated for 72 hours. The cells were lysed by adding CellTiter-Glo® Reagent (per manufacturer's instructions) and subsequently, the luminescence was read using EnVision® (PerkinElmer).
(§3) The percent of growth was calculated as follows. DMSO-treated cells were employed as vehicle control (High control, HC) and culture medium alone was employed as background (Low control, EC). % growth=100×(Lum sample−Lum EC)/(Lum HC−Lum EC). The ICso was calculated by concentration-response curve fitting using Graphpad Prism.
Hematological cancer cell lines tested included OCI-AML3, MV-4-11, KG-1, Kasumi-1, K562, THP-1; solid cancer cell lines tested included U87MG, U251, T98G, LN229, A172, H460, H2009, A549; normal cell lines tested included HCN2 and 3T3-L1. […] However, they were not toxic to in vitro cultured normal cells.

HCT116 = test: Cytotoxicity, cell proliferation assay, HCT116 colon cancer; assay type: cell-based; conditions: Table 8
Protocol: as §2, §3
(§4) The cytotoxicity of test compounds in brain (HCN2), colon cancer (HCT116) and normal colon cell (C8-B4) lines was determined using the cell proliferation assay as described in Example 19.

C8-B4 = test: Cytotoxicity, cell proliferation assay, C8-B4; assay type: cell-based; conditions: Table 8
Protocol: as §2, §3, §4

3T3 = test: Cytotoxicity, cell proliferation assay, 3T3; assay type: cell-based; conditions: Mus musculus, NIH3T3; Table 9
Protocol: as §2, §3
The cytotoxicity of test compounds was also determined in glioblastoma (U87MG)), brain (HCN2) and 3T3 cell lines was determined using the cell proliferation assay as described in Example 19.

[1] = mouse, in vivo, po

T1 sequence (O14980 whole entry): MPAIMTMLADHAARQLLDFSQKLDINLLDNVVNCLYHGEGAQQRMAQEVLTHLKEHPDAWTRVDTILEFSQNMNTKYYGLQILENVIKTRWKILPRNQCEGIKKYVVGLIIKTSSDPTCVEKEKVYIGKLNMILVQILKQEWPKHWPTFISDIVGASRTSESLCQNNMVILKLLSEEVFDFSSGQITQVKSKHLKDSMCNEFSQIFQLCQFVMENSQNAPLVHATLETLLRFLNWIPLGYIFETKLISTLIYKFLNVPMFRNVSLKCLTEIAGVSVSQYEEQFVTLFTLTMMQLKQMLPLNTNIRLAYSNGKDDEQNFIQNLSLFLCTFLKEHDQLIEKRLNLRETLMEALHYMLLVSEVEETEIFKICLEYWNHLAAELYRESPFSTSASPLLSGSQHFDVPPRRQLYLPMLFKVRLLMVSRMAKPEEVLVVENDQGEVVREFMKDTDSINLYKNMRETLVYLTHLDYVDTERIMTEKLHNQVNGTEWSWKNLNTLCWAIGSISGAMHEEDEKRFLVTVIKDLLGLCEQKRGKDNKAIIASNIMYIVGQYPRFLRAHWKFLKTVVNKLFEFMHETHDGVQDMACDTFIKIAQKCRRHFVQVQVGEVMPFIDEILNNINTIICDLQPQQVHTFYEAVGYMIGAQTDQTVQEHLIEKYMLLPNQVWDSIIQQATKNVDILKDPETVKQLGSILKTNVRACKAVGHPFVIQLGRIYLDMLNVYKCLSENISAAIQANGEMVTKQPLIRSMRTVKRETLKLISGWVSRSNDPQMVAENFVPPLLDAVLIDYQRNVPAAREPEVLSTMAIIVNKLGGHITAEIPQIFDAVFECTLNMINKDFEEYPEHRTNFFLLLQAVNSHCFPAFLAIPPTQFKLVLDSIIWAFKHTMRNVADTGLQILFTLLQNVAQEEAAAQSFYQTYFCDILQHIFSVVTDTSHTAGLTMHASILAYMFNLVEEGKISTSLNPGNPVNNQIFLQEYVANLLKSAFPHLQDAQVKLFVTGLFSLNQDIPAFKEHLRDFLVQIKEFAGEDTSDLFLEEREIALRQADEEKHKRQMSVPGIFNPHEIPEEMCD

Structure (SMILES) | bodyweight loss (individual animal) (U87MG-luc tumor) | medium survival time (MST) (U87MG-luc tumor) | tolerability (U87MG-luc tumor) | reduction in bioluminescence signal compared with the vehicle control group (U87MG-luc tumor; end of treatment period) | expression of CRM1 in tumors (IHC) (CRM1) | expression of Ki67 in tumors (IHC) (Ki67) | MTD (in vivo) | IC50 (3T3-L1; 3T3-L1, Table 6, read-out: 3T3-L1 IC50) | IC50 (3T3-L1; 3T3-L1 normal cell line, 72 hours, Table 1, read-out: Growth inhibition (IC50)) | IC50 (HCT116; Homo sapiens, HCT-116) | HCT116 Max % inh (HCT116) | IC50 (C8-B4; C8-B4) | C8-B4 Max % inh (C8-B4) | IC50 (3T3) | survival in MTD study [1]
CC(C)(C)C(=O)NNC(=O)/C=C\n1cnc(-c2cc(C(F)(F)F)cc(S(F)(F)(F)(F)F)c2)n1 [Compound III, (Z)-3-(3-(3-(Pentafluorosulfanyl)-5-(trifluoromethyl)phenyl)-1H-1,2,4-triazol-1-yl)-N′-pivaloylacrylohydrazide] | less than 10% | 47 days | well tolerated by most animals | 99% | significantly decreased | significantly decreased | < 25 mg/kg | – | – | – | – | – | – | – | –
O=C(/C=C\n1cnc(-c2cc(C(F)(F)F)cc(S(F)(F)(F)(F)F)c2)n1)NNc1cnccn1 [Compound I, (Z)-3-(3-(3-(pentafluorosulfanyl)-5-(trifluoromethyl)phenyl)-1H-1,2,4-triazol-1-yl)-N′-(pyrazin-2-yl)acrylohydrazide] | – | – | – | – | – | – | – | > 50 µM | > 50 µM | 5.96 µM | 88% | 4.3 µM | 91% | > 50 µM | survived
